# Laboratory results as given in ChEMBL document CHEMBL5696442, “Discovery of type II inhibitors of TGFβ-activated kinase 1 (TAK1) and mitogen-activated protein kinase kinase kinase kinase 2 (MAP4K2)” (J Med Chem, 2015).
# What was measured:
# [1] = molecular target: Tyrosine-protein kinase ABL (Homo sapiens) (UniProt P00519+P42684); assay: Inhibition of ABL1/2 K1 labeling site in human Huh-7 cells at 1 uM by KiNativ Profiling analysis relative to control; type: cell-based
# [2] = molecular target: Citron Rho-interacting kinase (Homo sapiens) (UniProt O14578); assay: Inhibition of CIT (unknown origin) at 1 uM by Ambit Kinomescan binding assay relative to control
# Citron Rho-interacting kinase (Homo sapiens), sequence (O14578 whole entry): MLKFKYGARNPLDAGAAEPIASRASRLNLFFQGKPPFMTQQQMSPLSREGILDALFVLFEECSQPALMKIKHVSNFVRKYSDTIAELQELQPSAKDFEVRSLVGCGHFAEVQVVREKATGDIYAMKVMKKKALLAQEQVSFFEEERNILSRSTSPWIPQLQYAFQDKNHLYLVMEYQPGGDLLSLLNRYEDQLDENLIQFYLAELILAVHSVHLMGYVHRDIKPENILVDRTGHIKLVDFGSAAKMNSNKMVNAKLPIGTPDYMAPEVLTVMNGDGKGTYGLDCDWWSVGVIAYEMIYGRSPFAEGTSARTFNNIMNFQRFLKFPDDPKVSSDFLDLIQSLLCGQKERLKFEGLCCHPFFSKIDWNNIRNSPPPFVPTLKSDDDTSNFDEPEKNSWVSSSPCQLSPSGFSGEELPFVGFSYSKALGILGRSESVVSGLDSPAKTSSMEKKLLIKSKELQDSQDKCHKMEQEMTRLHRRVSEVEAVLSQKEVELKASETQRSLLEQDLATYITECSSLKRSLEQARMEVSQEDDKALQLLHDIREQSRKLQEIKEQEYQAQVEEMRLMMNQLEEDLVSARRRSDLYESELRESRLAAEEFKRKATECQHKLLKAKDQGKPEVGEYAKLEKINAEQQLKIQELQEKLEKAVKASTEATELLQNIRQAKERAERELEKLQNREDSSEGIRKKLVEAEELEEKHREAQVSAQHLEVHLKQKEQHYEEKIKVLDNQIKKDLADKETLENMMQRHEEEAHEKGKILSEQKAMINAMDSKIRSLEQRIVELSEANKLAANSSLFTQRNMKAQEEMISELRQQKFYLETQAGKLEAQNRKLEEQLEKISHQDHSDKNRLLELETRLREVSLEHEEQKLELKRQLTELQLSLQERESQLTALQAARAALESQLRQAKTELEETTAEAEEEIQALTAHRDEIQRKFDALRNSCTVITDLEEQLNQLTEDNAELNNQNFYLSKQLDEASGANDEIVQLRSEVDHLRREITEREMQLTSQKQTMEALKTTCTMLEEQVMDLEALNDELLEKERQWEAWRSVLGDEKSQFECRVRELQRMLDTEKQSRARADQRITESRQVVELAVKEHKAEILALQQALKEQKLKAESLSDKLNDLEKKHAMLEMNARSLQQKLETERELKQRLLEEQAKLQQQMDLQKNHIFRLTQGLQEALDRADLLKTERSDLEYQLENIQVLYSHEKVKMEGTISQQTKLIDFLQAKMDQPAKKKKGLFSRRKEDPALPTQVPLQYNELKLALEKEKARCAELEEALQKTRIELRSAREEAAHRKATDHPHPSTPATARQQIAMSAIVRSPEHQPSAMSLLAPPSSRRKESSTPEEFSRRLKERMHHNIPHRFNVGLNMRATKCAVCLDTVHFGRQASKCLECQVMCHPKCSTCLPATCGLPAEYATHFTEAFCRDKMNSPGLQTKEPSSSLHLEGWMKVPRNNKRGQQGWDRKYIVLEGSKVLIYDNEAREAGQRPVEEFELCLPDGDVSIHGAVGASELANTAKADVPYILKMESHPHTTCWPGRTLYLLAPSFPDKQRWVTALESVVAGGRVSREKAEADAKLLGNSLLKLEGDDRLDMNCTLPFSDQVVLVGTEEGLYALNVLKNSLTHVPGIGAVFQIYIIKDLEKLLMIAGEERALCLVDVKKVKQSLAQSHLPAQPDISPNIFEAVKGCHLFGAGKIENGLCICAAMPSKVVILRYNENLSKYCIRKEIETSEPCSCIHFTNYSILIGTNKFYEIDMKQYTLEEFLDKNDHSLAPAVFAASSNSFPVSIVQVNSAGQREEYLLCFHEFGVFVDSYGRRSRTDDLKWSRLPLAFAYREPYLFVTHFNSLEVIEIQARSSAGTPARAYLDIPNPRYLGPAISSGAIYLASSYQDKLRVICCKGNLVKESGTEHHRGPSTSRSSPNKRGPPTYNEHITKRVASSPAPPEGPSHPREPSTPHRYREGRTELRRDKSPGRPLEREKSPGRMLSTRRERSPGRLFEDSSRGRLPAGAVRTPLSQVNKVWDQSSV
# [3] = molecular target: Dual specificity protein kinase CLK1 (Homo sapiens) (UniProt P49759); assay: Inhibition of CLK1 (unknown origin) at 1 uM by Ambit Kinomescan binding assay relative to control; values are per cent of control
# Dual specificity protein kinase CLK1 (Homo sapiens), sequence (P49759 whole entry, looked up): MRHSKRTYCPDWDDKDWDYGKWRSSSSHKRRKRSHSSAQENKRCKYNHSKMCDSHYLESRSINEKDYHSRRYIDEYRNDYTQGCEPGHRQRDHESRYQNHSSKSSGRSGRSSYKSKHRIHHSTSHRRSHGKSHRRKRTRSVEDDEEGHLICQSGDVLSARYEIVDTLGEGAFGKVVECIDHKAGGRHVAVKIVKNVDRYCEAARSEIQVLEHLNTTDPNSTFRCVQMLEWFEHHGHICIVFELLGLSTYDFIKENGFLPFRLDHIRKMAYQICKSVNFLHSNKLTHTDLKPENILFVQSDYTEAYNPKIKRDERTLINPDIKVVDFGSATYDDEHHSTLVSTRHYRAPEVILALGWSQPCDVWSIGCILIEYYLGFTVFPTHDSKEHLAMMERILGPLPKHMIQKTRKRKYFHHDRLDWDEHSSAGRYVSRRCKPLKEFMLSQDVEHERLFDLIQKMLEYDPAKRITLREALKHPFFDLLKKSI
# [4] = molecular target: Activin receptor type-1 (Homo sapiens) (UniProt Q04771); assay: Inhibition of ACVR1 (unknown origin) at 1 uM by Ambit Kinomescan binding assay relative to control
# Activin receptor type-1 (Homo sapiens), sequence (Q04771 whole entry): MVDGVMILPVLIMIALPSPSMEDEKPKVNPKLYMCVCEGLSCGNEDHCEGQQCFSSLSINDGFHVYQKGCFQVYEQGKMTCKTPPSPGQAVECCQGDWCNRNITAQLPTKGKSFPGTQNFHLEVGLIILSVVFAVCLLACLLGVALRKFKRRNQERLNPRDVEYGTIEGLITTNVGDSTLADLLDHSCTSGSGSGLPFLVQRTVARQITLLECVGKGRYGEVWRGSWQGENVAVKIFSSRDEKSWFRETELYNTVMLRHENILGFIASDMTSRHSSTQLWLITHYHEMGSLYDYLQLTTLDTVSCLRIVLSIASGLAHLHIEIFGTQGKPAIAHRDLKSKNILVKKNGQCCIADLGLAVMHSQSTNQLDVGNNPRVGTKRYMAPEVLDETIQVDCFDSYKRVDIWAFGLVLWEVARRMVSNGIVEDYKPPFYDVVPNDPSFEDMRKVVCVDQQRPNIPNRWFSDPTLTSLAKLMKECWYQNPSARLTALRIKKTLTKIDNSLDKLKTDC
# [5] = molecular target: T1, Mitogen-activated protein kinase kinase kinase 15 (Homo sapiens) (UniProt Q6ZN16); assay: Inhibition of MAP3K15 (unknown origin) at 1 uM by Ambit Kinomescan binding assay relative to control; values are per cent of control
# T1 sequence (whole entry): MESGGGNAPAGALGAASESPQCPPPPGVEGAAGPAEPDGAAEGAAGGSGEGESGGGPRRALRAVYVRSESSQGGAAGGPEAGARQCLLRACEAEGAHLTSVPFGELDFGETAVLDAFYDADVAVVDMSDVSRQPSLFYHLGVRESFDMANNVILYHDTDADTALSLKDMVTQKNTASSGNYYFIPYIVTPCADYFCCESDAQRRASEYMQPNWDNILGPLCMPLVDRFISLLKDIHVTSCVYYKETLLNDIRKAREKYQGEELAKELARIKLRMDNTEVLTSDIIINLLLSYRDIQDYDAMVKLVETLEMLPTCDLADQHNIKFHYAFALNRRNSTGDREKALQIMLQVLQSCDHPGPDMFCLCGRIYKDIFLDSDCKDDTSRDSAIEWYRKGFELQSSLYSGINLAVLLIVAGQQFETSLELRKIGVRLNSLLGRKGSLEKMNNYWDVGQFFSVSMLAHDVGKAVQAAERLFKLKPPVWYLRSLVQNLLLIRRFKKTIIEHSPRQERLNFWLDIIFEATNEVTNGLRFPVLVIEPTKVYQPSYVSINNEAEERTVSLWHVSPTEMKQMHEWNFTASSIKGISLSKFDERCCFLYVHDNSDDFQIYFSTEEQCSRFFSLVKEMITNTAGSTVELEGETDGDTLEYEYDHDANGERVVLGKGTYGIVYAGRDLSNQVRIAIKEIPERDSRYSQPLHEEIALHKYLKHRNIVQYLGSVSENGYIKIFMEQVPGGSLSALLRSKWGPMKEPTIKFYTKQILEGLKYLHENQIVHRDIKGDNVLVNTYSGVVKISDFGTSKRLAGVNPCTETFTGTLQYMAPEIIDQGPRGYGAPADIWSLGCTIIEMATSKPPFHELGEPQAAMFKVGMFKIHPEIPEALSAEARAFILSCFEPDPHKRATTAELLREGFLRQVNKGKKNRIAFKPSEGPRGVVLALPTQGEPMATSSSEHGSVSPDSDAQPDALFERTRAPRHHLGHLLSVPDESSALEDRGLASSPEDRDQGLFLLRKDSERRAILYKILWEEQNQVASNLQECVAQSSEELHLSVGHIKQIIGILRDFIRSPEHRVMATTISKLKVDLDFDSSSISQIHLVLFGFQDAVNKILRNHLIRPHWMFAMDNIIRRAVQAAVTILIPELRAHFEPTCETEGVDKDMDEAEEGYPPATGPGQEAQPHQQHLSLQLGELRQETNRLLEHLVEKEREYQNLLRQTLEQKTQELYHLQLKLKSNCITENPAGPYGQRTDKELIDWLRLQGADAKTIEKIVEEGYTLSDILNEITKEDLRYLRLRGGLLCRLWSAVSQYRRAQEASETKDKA
# [6] = molecular target: T2, Serine/threonine-protein kinase D2 (Homo sapiens) (UniProt Q9BZL6); assay: Inhibition of PKD2 Lys1 labeling site in human A-375 cells at 5 uM by KiNativ Profiling analysis relative to control; type: cell-based
# T2 sequence (whole entry): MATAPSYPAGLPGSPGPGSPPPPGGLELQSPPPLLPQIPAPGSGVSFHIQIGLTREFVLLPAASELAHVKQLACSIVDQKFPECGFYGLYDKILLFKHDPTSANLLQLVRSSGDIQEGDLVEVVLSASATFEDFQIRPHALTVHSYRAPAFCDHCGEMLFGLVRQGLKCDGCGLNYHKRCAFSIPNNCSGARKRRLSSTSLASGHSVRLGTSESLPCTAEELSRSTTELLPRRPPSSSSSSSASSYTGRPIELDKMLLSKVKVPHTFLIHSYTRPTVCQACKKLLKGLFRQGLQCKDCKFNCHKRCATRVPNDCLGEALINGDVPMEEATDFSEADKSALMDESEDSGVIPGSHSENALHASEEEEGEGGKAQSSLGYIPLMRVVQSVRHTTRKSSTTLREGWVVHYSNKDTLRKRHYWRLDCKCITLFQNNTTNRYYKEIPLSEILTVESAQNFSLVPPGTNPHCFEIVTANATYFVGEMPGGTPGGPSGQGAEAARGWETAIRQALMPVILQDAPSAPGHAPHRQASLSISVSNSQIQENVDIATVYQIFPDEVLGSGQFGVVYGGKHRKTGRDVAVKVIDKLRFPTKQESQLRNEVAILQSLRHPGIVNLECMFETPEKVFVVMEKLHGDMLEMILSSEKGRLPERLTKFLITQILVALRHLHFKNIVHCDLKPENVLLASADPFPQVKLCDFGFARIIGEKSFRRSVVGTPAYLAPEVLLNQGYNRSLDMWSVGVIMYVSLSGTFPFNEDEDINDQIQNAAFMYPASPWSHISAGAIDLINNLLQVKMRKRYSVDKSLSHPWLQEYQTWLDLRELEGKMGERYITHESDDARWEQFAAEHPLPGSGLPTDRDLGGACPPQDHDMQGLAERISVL
# [7] = molecular target: Serine/threonine-protein kinase MARK2 (Homo sapiens) (UniProt Q7KZI7); assay: Inhibition of MARK2 Lys2 labeling site harbouring FIVHRDLKAENLLLDADMNIK in human Huh-7 cell lysate at 1 uM by KiNativ Profiling analysis relative to control; type: subcellular
# Serine/threonine-protein kinase MARK2 (Homo sapiens), sequence (Q7KZI7 whole entry): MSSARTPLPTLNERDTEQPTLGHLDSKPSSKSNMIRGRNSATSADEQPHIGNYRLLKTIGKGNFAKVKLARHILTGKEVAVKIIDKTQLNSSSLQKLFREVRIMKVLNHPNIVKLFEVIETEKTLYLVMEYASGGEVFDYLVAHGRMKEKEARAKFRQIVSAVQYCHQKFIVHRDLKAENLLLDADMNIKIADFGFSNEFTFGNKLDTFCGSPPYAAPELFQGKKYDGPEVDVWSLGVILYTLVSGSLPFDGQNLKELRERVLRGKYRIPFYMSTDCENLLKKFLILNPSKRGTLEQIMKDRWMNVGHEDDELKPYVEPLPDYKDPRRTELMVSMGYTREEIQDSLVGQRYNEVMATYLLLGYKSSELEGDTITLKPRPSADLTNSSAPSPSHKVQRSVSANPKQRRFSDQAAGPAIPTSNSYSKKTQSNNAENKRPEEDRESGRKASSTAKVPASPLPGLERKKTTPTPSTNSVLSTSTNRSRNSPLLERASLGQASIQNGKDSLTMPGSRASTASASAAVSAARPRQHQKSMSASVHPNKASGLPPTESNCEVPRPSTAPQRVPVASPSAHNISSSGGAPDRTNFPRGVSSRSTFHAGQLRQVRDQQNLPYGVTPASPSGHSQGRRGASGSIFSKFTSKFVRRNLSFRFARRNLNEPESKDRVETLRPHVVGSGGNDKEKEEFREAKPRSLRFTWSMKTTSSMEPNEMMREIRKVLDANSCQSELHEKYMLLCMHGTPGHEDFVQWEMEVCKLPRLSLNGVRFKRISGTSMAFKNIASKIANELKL
compound,measurement,setting,value
CCN1CCN(Cc2ccc(NC(=O)c3ccc(C)c(Oc4ccnc5[nH]ccc45)c3)cc2C(F)(F)F)CC1,inhibition,[1],16.4%
CCN1CCN(Cc2ccc(NC(=O)c3ccc(C)c(/C=C/c4cnc5[nH]ccc5c4OC)c3)cc2C(F)(F)F)CC1,inhibition,[2],4.6%
same,residual activity,[3],59%
same,inhibition,[4],100%
same,residual activity,[5],100%
same,inhibition,[6],2.1%
CNc1cc(Oc2cc(C(=O)Nc3cc(N4CCN(C)CC4)cc(C(F)(F)F)c3)ccc2C)ncn1,inhibition,[7],6%
